Test results: patent publication US20240279191A1, “SMALL MOLECULE INHIBITORS OF TEAD-YAP” (The General Hospital Corporation, priority 2021, published 2024)
Read-outs that look alike come from different tables or passages of the source. One block for each compound: values may come before it.

Experiments:
[1] = Metabolic stability in mouse hepatic microsomes (Scripps Florida DMPK Core); format: in vitro ADME; details: for half-life / microsomal CLint: mouse, liver microsomes; for half-life: 1 mg/mL hepatic microsomes; for microsomal CLint: hepatic microsomes, read-out: Intrinsic Clearance, Mouse (Clint); for metabolic stability (in words): Tables E1 and E2, human and mouse microsomes
Metabolic stability MLM = details: for Met stab MLM, 15 min / Met stab MLM, 60 min: % parent remained per Table G2
TEAD = assay: WB primary assay (SAR tables F1, F3A); format: biochemical
H226 = H226 growth inhibition (SAR tables); format: cell-based; details: for GI50: Homo sapiens, NCI-H226
KNS62 = KNS62 growth inhibition (SAR tables); format: cell-based
[2] = Metabolic stability in human hepatic microsomes (Scripps Florida DMPK Core); format: in vitro ADME; details: liver microsomes; for half-life: 1 mg/mL hepatic microsomes; for microsomal CLint: hepatic microsomes, read-out: Intrinsic Clearance, Human (Clint)
[3] = Aqueous solubility (Aq Sol); format: physicochemical
in vitro [4] = details: human
in vitro [5] = details: mouse
physchem = details: pH 7.4
logD 7.4 = details: pH 7.4
[6] = Metabolic stability CLint, human (Tables H1, H2)
[7] = Metabolic stability CLint, mouse (Tables H1, H2)
[8] = Pharmacokinetics / oral bioavailability in male CD-1 mice; format: in vivo; details: for AUC(0-inf): Table F2A; for half-life: read-out: t1/2, β (converted)
Text: Example G. Oral Bioavailability of MGH-CP-715 in Male CD-1Mice

TEAD2 = TEAD2 (Homo sapiens, UniProt Q15562); assay: Inhibition of TEAD2 auto-palmitoylation in vitro; details: FIG. 1; 0.05 and 0.5 μM for 30 mins
H226 cells = assay: Cell proliferation assay (MTT), H226; details: 6 days, FIG. 8C
[9] = male, CD-1, mouse, in vivo, 1 mg/Kg IV
[10] = male, CD-1, mouse, in vivo, 10 mg/Kg PO

Sequence of TEAD2 (Q15562 whole entry): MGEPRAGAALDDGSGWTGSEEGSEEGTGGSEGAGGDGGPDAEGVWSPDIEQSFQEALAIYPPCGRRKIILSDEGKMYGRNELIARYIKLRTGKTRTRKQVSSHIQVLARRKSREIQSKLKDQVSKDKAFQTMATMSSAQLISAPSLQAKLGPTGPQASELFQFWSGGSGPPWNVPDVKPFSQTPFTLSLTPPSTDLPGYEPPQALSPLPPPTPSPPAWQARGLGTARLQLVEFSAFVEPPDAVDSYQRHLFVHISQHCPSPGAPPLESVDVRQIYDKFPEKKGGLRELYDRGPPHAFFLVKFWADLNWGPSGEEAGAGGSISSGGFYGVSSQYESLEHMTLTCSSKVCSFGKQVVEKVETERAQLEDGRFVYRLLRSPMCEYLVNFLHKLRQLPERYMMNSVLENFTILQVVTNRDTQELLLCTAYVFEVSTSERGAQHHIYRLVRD

half-life [1]: 1.7 min
microsomal CLint [1]: 415 µL/min/mg
Structure (SMILES): O=C(Nc1ccccc1)N1CCN(C2(c3cccc(OCCc4ccccc4)c3)COC2)CC1 [TM97]

MLM stability (in words) (Metabolic stability MLM): not improved
Met stab MLM, 15 min (Metabolic stability MLM; 15 min): 40%
Met stab MLM, 60 min (Metabolic stability MLM; 60 min): < 5%
GI50 (H226): 236 nM
Structure (SMILES): O=C(Nc1ccccc1)N1CCN(C(=O)c2ccnc(OCCC3CCCCC3)c2)CC1 [MGH-CP-716]
WB: % inh. @ 1 μM (TEAD): 59%
WB: % inh. @ 10 μM (TEAD): 96%
activity in cellular assays (in words) (H226): active
KNS62: value at 1 μM (KNS62): 54
KNS62: value at 10 μM (KNS62): 60

half-life [2]: 11.1 min
microsomal CLint [2]: 62 µL/min/mg
metabolic stability (in words) [1]: improved metabolic stability
half-life [1]: 16.7 min
microsomal CLint [1]: 41 µL/min/mg
Structure (SMILES): Nc1cccc(NC(=O)N2CCN(C(=O)c3cccc(OCCC4CCCCC4)c3)CC2)c1 [TM93]

Met stab MLM, 15 min (Metabolic stability MLM; 15 min): 29%
Met stab MLM, 60 min (Metabolic stability MLM; 60 min): < 5%
GI50 (H226): 2640 nM
Aq Sol [3]: <2 µM
Structure (SMILES): O=C(Oc1ccccc1)N1CCN(C(=O)c2cccc(OCCC3CCCCC3)c2)CC1 [MGH-CP-714]
WB: % inh. @ 1 μM (TEAD): 16%
WB: % inh. @ 10 μM (TEAD): 94%
KNS62: value at 1 μM (KNS62): 10
KNS62: value at 10 μM (KNS62): 48

Structure (SMILES): NC(=O)c1cncc(OC(=O)N2CCC(CCc3cccc(C(=O)N4CCCC4)c3)CC2)c1
CLint scaled (in vitro [4]): 86 mL/min/kg
CLint scaled (in vitro [5]): 90 mL/min/kg
logD (physchem): 2.6

logD (logD 7.4): 2.38
CLint scaled [6]: 109 mL/min/kg
CLint scaled [7]: 156 mL/min/kg
Structure (SMILES): O=C(Nc1ncccn1)N1CCN(C(=O)c2cccc(OCCC3CCCCC3)c2)CC1 [TM23]

% Parent remained MLM, 15 min (Metabolic stability MLM; 15 min, Table G2): 66%
Met stab MLM, 15 min (Metabolic stability MLM; 15 min): 66%
% Parent remained MLM, 60 min (Metabolic stability MLM; 60 min, Table G2): 15%
Met stab MLM, 60 min (Metabolic stability MLM; 60 min): 15%
F (oral bioavailability) ([8]; 10 mg/Kg PO versus 1 mg/Kg IV): ~5.7%
bioavailability ([8]; male, CD-1, mouse, in vivo, oral, 10 mg/Kg, 10 mg/Kg PO versus 1 mg/Kg IV, read-out: F (oral bioavailability)): ~5%
AUC(0-t) [8, 9]: 663 ng·h/mL
MRT [8, 9]: 88.2 min
clearance [8, 9]: 22.6 mL/min/kg
AUC(0-inf) [8, 9]: 736 ng·h/mL
Cmax ([8]; male, CD-1, mouse, in vivo, 1 mg/Kg IV, read-out: C0/Cmax (C0)): 834 ng/mL
Vd ([8]; male, CD-1, mouse, in vivo, 1 mg/Kg IV, read-out: VSS): 3.61 L/kg
half-life [8, 9]: 223 min
AUC(0-t) [8, 10]: 394 ng·h/mL
MRT [8, 10]: 157 min
Tmax [8, 10]: 15 min
AUC(0-inf) [8, 10]: 422 ng·h/mL
Cmax ([8]; male, CD-1, mouse, in vivo, 10 mg/Kg PO, read-out: C0/Cmax (Cmax)): 108 ng/mL
half-life [8, 10]: 112 min
clearance (in words) ([8]; mouse, in vivo): low
volume of distribution (in words) ([8]; mouse, in vivo): high
Aq Sol [3]: <2 µM
Structure (SMILES): O=C(Nc1ccccc1)N1CCN(Cc2cccc(OCCC3CCCCC3)c2)CC1 [MGH-CP-715]
WB: % inh. @ 1 μM (TEAD): 35%
WB: % inh. @ 10 μM (TEAD): 95%
H226: value at 1 μM (H226; 1 μM): 16
H226: value at 10 μM (H226; 10 μM): 69
KNS62: value at 1 μM (KNS62): 4
KNS62: value at 10 μM (KNS62): 57

Met stab MLM, 15 min (Metabolic stability MLM; 15 min): 41%
Met stab MLM, 60 min (Metabolic stability MLM; 60 min): < 5%
GI50 (H226): 1040 nM
Aq Sol [3]: <2 µM
Structure (SMILES): CC1CN(C(=O)Nc2ccccc2)CCN1C(=O)c1cccc(OCCC2CCCCC2)c1 (stereo not drawn) [MGH-CP-710]
WB: % inh. @ 1 μM (TEAD): 54%
WB: % inh. @ 10 μM (TEAD): 81%
KNS62: value at 1 μM (KNS62): 35
KNS62: value at 10 μM (KNS62): 51

inhibition of TEAD2 auto-palmitoylation (in words) (TEAD2): significantly decrease the activities
half-life [1]: 11.2 min
microsomal CLint [1]: 62 µL/min/mg
Structure (SMILES): O=C(Nc1ccccc1)N1CCN(C(=O)c2cccc(OCCC3CCOCC3)c2)CC1 [TM45, N-phenyl-4-(3-(2-(tetrahydro-2H-pyran-4-yl)ethoxy)benzoyl)piperazine-1-carboxamide]
H226 anti-proliferative potency relative to TM2 (in words) (H226 cells): less potent than TM2

logD (logD 7.4): 2.59
CLint scaled [6]: 54 mL/min/kg
CLint scaled [7]: 87 mL/min/kg
Structure (SMILES): O=C(NCCc1cccc(F)c1)C1CCN(C(=O)Oc2ccccc2)CC1

Met stab MLM, 15 min (Metabolic stability MLM; 15 min): 26%
Met stab MLM, 60 min (Metabolic stability MLM; 60 min): < 5%
GI50 (H226): 1970 nM
Aq Sol [3]: 2 µM
Structure (SMILES): C[C@@H]1CN(C(=O)Nc2ccccc2)[C@@H](C)CN1C(=O)c1cccc(OCCC2CCCCC2)c1 [MGH-CP-709]
WB: % inh. @ 1 μM (TEAD): 45%
WB: % inh. @ 10 μM (TEAD): 77%
KNS62: value at 1 μM (KNS62): 28
KNS62: value at 10 μM (KNS62): 46

Structure (SMILES): O=C(Oc1ccccc1)N1CCN(Cc2cccc(OCCC3CCCCC3)c2)CC1 [MGH-CP-718]
Met stab MLM, 15 min (Metabolic stability MLM; 15 min): 59%
Met stab MLM, 60 min (Metabolic stability MLM; 60 min): 13%
MLM stability (in words) (Metabolic stability MLM; mouse, microsomes): moderately stable
activity in primary assay (in words) (TEAD): inactive
WB: % inh. @ 1 μM (TEAD): −4%
WB: % inh. @ 10 μM (TEAD): 11%

MLM stability (in words) (Metabolic stability MLM): poor
Met stab MLM, 15 min (Metabolic stability MLM; 15 min): 6%
Met stab MLM, 60 min (Metabolic stability MLM; 60 min): < 5%
Structure (SMILES): O=C(Nc1ccccc1)N1C[C@@H]2C[C@H]1CN2C(=O)c1cccc(OCCC2CCCCC2)c1 [MGH-CP-717]
activity in primary assay (in words) (TEAD): inactive
WB: % inh. @ 1 μM (TEAD): −2%
WB: % inh. @ 10 μM (TEAD): 22%

half-life [2]: 5.8 min
microsomal CLint [2]: 120 µL/min/mg
metabolic stability (in words) [1]: improved metabolic stability
half-life [1]: 9.6 min
microsomal CLint [1]: 72 µL/min/mg
Structure (SMILES): O=C(Nc1ccccc1)N1CCN([S+]([O-])c2cccc(OCCc3ccccc3)c2)CC1 (stereo not drawn) [TM100]

logD (logD 7.4): 2.16
CLint human [6]: no depletion (stable)
CLint scaled [7]: 47 mL/min/kg
Structure (SMILES): O=C(Nc1ccccc1)C1CCN(C(=O)Oc2cccnc2)CC1

Structure (SMILES): Nc1ccc(NC(=O)N2CCN(C(=O)c3cccc(OCCC4CCCCC4)c3)CC2)cc1 [TM112, N-(4-aminophenyl)-4-(3-(2-cyclohexylethoxy)benzoyl)piperazine-1-carboxamide]
H226 anti-proliferative potency relative to TM2 (in words) (H226 cells): less potent than TM2
